Measured values reported in US6737383B1, “Herbicidal oxadiazolidines” (priority 1999, dated 2004).

Legend:
smallflower flatsedge = test: Test B flood test smallflower flatsedge; assay type: in vivo, Cyperus difformis
In short: (§1)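 Read-out is a visual response score from 0 (no effect) to 10 (complete control), assigned by comparison with untreated controls. Treatment was applied at the 2-leaf stage, and plants stayed in the greenhouse for twelve to sixteen days before scoring.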

velvetleaf = test: Test B pre/postemergence velvetleaf; assay type: in vivo, Abutilon theophrasti
In short: (§2)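 Herbicidal effect was estimated by eye on a ten-point control scale after plants spent twelve to sixteen days in a greenhouse following soil or foliar treatment. Foliar sprays targeted plants at one to four leaves; all doses were formulated in a non-phytotoxic solvent with surfactant.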

duck salad = test: Test B flood test duck salad; assay type: in vivo, Heteranthera limosa
In short: as §1

morningglory = test: Test B pre/postemergence morningglory; assay type: in vivo, Ipomoea hederacea
In short: as §2

sugar beet = test: Test B pre/postemergence sugar beet; assay type: in vivo, Beta vulgaris
In short: as §2

bedstraw = test: Test B pre/postemergence bedstraw; assay type: in vivo, Galium aparine
In short: as §2

pigweed = test: Test B pre/postemergence pigweed; assay type: in vivo, Amaranthus retroflexus
In short: as §2

blackgrass = test: Test B pre/postemergence blackgrass; assay type: in vivo, Alopecurus myosuroides
In short: as §2

bamyardgrass = test: Test B flood test barnyardgrass; assay type: in vivo, Echinochloa crus-galli
In short: as §1

surinam grass = test: Test B pre/postemergence surinam grass; assay type: in vivo, Brachiaria decumbens
In short: as §2

rape = test: Test B pre/postemergence rape; assay type: in vivo, Brassica napus
In short: as §2

cocklebur = test: Test B pre/postemergence cocklebur; assay type: in vivo, Xanthium strumarium
In short: as §2

corn = test: Test B pre/postemergence corn; assay type: in vivo, Zea mays
In short: as §2

giant foxtail = test: Test B pre/postemergence giant foxtail; assay type: in vivo, Setaria faberii
In short: as §2

rice = test: Test B flood test rice; assay type: in vivo, Oryza sativa
In short: as §1

wheat = test: Test B pre/postemergence wheat; assay type: in vivo, Triticum aestivum
In short: as §2

soybean = test: Test B pre/postemergence soybean; assay type: in vivo, Glycine max
In short: as §2

crabgrass = test: Test B pre/postemergence crabgrass; assay type: in vivo, Digitaria sanguinalis
In short: as §2

wild oat = test: Test B pre/postemergence wild oat; assay type: in vivo, Avena fatua
In short: as §2

purple nutsedge = test: Test B pre/postemergence purple nutsedge; assay type: in vivo, Cyperus rotundus
In short: as §2

[1] = Rate 62 g/ha, headed Pre-emergence (flood test species), scale 0 to 10 (0 no effect, 10 complete control)
[2] = Rate 125 g/ha, Pre-emergence, flood test species, scale 0 to 10 where 0 is no effect and 10 is complete control
[3] = Rate 250 g/ha, Pre-emergence, flood-test species, scale 0 to 10, 0 is no effect, 10 is complete control
[4] = Rate 500 g/ha, Pre-emergence, flood test species, scale 0 to 10 (0 no effect, 10 complete control)
[5] = Preemergence, Rate 62 g/ha, scale of 0 to 10 where 0 is no effect and 10 is complete control
[6] = Preemergence, Rate 250 g/ha, scale of 0 to 10 where 0 is no effect and 10 is complete control
[7] = Preemergence, Rate 500 g/ha, scale of 0 to 10 where 0 is no effect and 10 is complete control
[8] = Rate 125 g/ha, Preemergence, scale of 0 to 10 where 0 is no effect and 10 is complete control
[9] = Rate 500 g/ha, Postemergence, scale 0 to 10, 0 no effect, 10 complete control
[10] = Rate 62 g/ha, Postemergence, scale of 0 to 10 where 0 is no effect and 10 is complete control
[11] = Rate 125 g/ha, Postemergence, scale 0 to 10

Cc1noc(C)c1Cn1c(=O)on(C(=O)N(c2ccc(F)cc2)C(C)C)c1=O [Compound 259]
S. Flatsedge plant response rating (smallflower flatsedge; [1]): 0
S. Flatsedge plant response rating (smallflower flatsedge; [2]): 0
S. Flatsedge plant response rating (smallflower flatsedge; [3]): 0
S. Flatsedge plant response rating (smallflower flatsedge; [4]): 0
Velvetleaf plant response rating (velvetleaf; [5]): 2
Velvetleaf plant response rating (velvetleaf; [6]): 4
Plant response rating, Velvetleaf (velvetleaf; [7]): 5
Velvetleaf plant response rating (velvetleaf; [8]): 2
Velvetleaf plant response rating (velvetleaf; [9]): 1
Ducksalad plant response rating (duck salad; [1]): 0
Ducksalad plant response rating (duck salad; [2]): 0
Ducksalad plant response rating (duck salad; [3]): 0
Ducksalad plant response rating (duck salad; [4]): 0
Morningglory plant response rating (morningglory; [5]): 0
Morningglory plant response rating (morningglory; [6]): 0
Plant response rating, Morningglory (morningglory; [7]): 0
Morningglory plant response rating (morningglory; [8]): 0
Plant response rating (0 to 10; 0 is no effect, 10 is complete control), Morningglory (morningglory; Rate 250 g/ha, Postemergence): 7
Morningglory plant response rating (morningglory; [9]): 8
Sugarbeets plant response rating (sugar beet; [5]): 0
Sugarbeets plant response rating (sugar beet; [6]): 0
Plant response rating, Sugarbeets (sugar beet; [7]): 0
Sugarbeets plant response rating (sugar beet; [8]): 0
Sugarbeets plant response rating (sugar beet; [9]): 3
Bedstraw plant response rating (bedstraw; [5]): 7
Bedstraw plant response rating (bedstraw; [6]): 10
Plant response rating, Bedstraw (bedstraw; [7]): 10
Bedstraw plant response rating (bedstraw; [10]): 0
Bedstraw plant response rating (bedstraw; [11]): 0
Bedstraw plant response rating (bedstraw; [8]): 10
Redroot pigweed plant response rating (pigweed; [5]): 0
Redroot pigweed plant response rating (pigweed; [6]): 2
Plant response rating, Redroot pigweed (pigweed; [7]): 8
Redroot pigweed plant response rating (pigweed; [8]): 0
Plant response rating (0 to 10; 0 is no effect, 10 is complete control), Redroot pigweed (pigweed; Rate 250 g/ha, Postemergence): 6
Redroot pigweed plant response rating (pigweed; [9]): 7
Blackgrass plant response rating (blackgrass; [5]): 2
Blackgrass plant response rating (blackgrass; [6]): 10
Plant response rating, Blackgrass (blackgrass; [7]): 10
Blackgrass plant response rating (blackgrass; [10]): 0
Blackgrass plant response rating (blackgrass; [11]): 0
Blackgrass plant response rating (blackgrass; [8]): 10
Plant response rating (0 to 10; 0 is no effect, 10 is complete control), Blackgrass (blackgrass; Rate 250 g/ha, Postemergence): 0
Blackgrass plant response rating (blackgrass; [9]): 0
Barnyardgrass plant response rating (bamyardgrass; [1]): 0
Barnyardgrass plant response rating (bamyardgrass; [2]): 0
Barnyardgrass plant response rating (bamyardgrass; [3]): 0
Barnyardgrass plant response rating (bamyardgrass; [4]): 0
B. signalgrass plant response rating (surinam grass; [5]): 2
B. signalgrass plant response rating (surinam grass; [6]): 8
Plant response rating, B. signalgrass (surinam grass; [7]): 9
B. signalgrass plant response rating (surinam grass; [10]): 0
B. signalgrass plant response rating (surinam grass; Rate 125 g/ha, Postemergence, scale 0 (no effect) to 10 (complete control)): 0
B. signalgrass plant response rating (surinam grass; [8]): 5
Plant response rating (0 to 10; 0 is no effect, 10 is complete control), B. signalgrass (surinam grass; Rate 250 g/ha, Postemergence): 0
B. signalgrass plant response rating (surinam grass; [9]): 0
Rape plant response rating (rape; [5]): 0
Plant response rating, Rape (rape; [7]): 9
Rape plant response rating (rape; [8]): 0
Plant response rating (0 to 10; 0 is no effect, 10 is complete control), Rape (rape; Rate 250 g/ha, Postemergence): 0
Cocklebur plant response rating (cocklebur; [5]): 0
Cocklebur plant response rating (cocklebur; [6]): 0
Plant response rating, Cocklebur (cocklebur; [7]): 0
Cocklebur plant response rating (cocklebur; [10]): 0
Cocklebur plant response rating (cocklebur; [11]): 2
Cocklebur plant response rating (cocklebur; [8]): 0
Plant response rating (0 to 10; 0 is no effect, 10 is complete control), Cocklebur (cocklebur; Rate 250 g/ha, Postemergence): 2
Cocklebur plant response rating (cocklebur; [9]): 3
Corn plant response rating (corn; [5]): 0
Corn plant response rating (corn; [6]): 3
Plant response rating, Corn (corn; [7]): 3
Corn plant response rating (corn; [10]): 0
Corn plant response rating (corn; [11]): 0
Corn plant response rating (corn; [8]): 0
Plant response rating (0 to 10; 0 is no effect, 10 is complete control), Corn (corn; Rate 250 g/ha, Postemergence): 0
Corn plant response rating (corn; [9]): 0
Giant foxtail plant response rating (giant foxtail; [5]): 9
Giant foxtail plant response rating (giant foxtail; [6]): 9
Plant response rating, Giant foxtail (giant foxtail; [7]): 10
Giant foxtail plant response rating (giant foxtail; [8]): 9
Plant response rating (0 to 10; 0 is no effect, 10 is complete control), Giant foxtail (giant foxtail; Rate 250 g/ha, Postemergence): 0
Giant foxtail plant response rating (giant foxtail; [9]): 0
Rice plant response rating (rice; [1]): 0
Rice plant response rating (rice; [2]): 0
Rice plant response rating (rice; [3]): 0
Rice plant response rating (rice; [4]): 0
Wheat plant response rating (wheat; [5]): 0
Wheat plant response rating (wheat; [6]): 0
Plant response rating, Wheat (wheat; [7]): 0
Wheat plant response rating (wheat; [8]): 0
Wheat plant response rating (wheat; [9]): 3
Soybean plant response rating (soybean; [5]): 0
Soybean plant response rating (soybean; [6]): 0
Plant response rating, Soybean (soybean; [7]): 0
Soybean plant response rating (soybean; [8]): 0
Soybean plant response rating (soybean; [9]): 6
Crabgrass plant response rating (crabgrass; [5]): 4
Plant response rating, Crabgrass (crabgrass; [7]): 7
Crabgrass plant response rating (crabgrass; [8]): 4
Plant response rating (0 to 10; 0 is no effect, 10 is complete control), Crabgrass (crabgrass; Rate 250 g/ha, Postemergence): 0
Crabgrass plant response rating (crabgrass; [9]): 0
Wild oats plant response rating (wild oat; [5]): 2
Wild oats plant response rating (wild oat; [6]): 4
Plant response rating, Wild oats (wild oat; [7]): 4
Wild oats plant response rating (wild oat; [8]): 2
Wild oats plant response rating (wild oat; [9]): 0
Nutsedge plant response rating (purple nutsedge; [5]): 0
Nutsedge plant response rating (purple nutsedge; [6]): 0
Plant response rating, Nutsedge (purple nutsedge; [7]): 0
Nutsedge plant response rating (purple nutsedge; [8]): 0
Plant response rating (0 to 10; 0 is no effect, 10 is complete control), Nutsedge (purple nutsedge; Rate 250 g/ha, Postemergence): 0
Nutsedge plant response rating (purple nutsedge; [9]): 0
